Assay results: article PMC9465256, “Discovering monoacylglycerol lipase inhibitors by a combination of fluorogenic substrate assay and activity-based protein profiling” (Frontiers in Pharmacology, 2022)

Key:
Format in all cases: biochemical
human ABHD6 = biological target: T1, human ABHD6 (Homo sapiens, UniProt Q9BV23); test: ABHD6 activity assay (AA-HNA fluorogenic substrate); conditions: 100 µM, AA-HNA substrate assay, Supplementary Table 2; read-out: ABHD6 Inhibition (%)
T1 construct: expressed in transfected cells; host or cells: HEK293T (transient transfection; membrane fraction)
T1 sequence (Q9BV23 1-337): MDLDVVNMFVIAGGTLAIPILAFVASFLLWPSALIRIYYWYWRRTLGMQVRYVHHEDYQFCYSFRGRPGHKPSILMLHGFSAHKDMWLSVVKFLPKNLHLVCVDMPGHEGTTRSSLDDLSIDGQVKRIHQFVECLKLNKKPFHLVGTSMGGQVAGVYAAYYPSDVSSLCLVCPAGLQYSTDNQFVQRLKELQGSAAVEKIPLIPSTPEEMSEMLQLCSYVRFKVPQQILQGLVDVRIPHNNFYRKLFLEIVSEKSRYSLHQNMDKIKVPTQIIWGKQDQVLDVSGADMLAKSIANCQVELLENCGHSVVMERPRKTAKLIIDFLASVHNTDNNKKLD
Procedure: (§1) HEK293T cells were cultured at 37°C under 5% CO2 in a DMEM medium with stable glutamine and phenolred, containing 10% fetal bovine serum (FBS, Gibco), penicillin, and streptomycin. The cells were passaged every 2–3 days by resuspension in the medium at ∼90% confluence. The membranes used in this study were prepared from transiently transfected HEK293T cells. Briefly, 1 day prior to transfection, ∼10^7 cells were seeded in 15 cm plates, and then the cells were transfected by the addition of a mixture of polyethyleneimine and plasmid DNA (3:1, 60, and 20 µg) in 2 ml of medium (without serum). Of note, the empty pcDNA3.1 vector was used in the Mock-control. After 24 h, the medium was removed and the cells were refreshed with fresh medium. After 72 h, the cells were harvested by suspending in 20 ml of medium, and the supernatant was removed by centrifugation for 10 min at 1,000 rpm. The cell pellet was flash frozen in liquid nitrogen and stored at −80°C until use. Subsequently, the cell pellets were suspended in lysis buffer (30 mM Tirs, pH 7.5, 1 mM MgCl2, 25 U/ml Benzonase), which was homogenized by sonication (3 × 10 bursts) and incubated for 30 min on ice. The membrane fractions overexpressing MAGL/ABHD6/ABHD12 were separated by ultracentrifuge (100,000 g, 30 min, 4 C). The protein concentration was determined with a Qubit protein assay (Invitrogen). The protein samples were quickly frozen in liquid nitrogen and stored at −80 C until use.
The MAGL activity assay is based on the hydrolysis of 2-arachidonoylglycerol-based fluorogenic substrate by MAGL-overexpressing membrane preparations from transiently transfected HEK293T cells. In brief, the reactions were performed in HEPES buffer (40 mM HEPES, pH 7.5, 0.1 mg/ml BSA) in black, flat bottom 96-well plates. The final protein concentration of membrane fractions from overexpressing human MAGL HEK293T cells was 12.5 μg/ml 5 µl of inhibitors were added from×40 concentrated DMSO stocks in the 96-well plate containing 145 µl assay buffer, followed by the addition of 40 µl of the protein (12.5 μg/ml). After the incubation of the inhibitor-protein complex for 30 min, 10 µl of the fluorogenic substrate (AA-HNA, 200 µM) was added and fluorescence was measured in 1 min intervals for 30 min on a plate reader (BioTek). Final assay concentrations: 12.5 μg/ml MAGL, […], and […] in the total volume of 200 µl. All the measurements were performed in N = 2, n = 2 for inhibitors and N = 2, n = 4 for controls with Z′ value ≥0.6. The slope is determined in 5–15 min for all the experiments.
The ABHD6 activity assay is based on the same principle as the MAGL activity assay described earlier, but with human ABHD6 overexpressing membrane preparations at a final protein concentration of 50 μg/ml and 200 µM AA-HNA. Other conditions are the same as those of the MAGL activity assay.

human ABHD12 = biological target: T2, human ABHD12 (Homo sapiens, UniProt Q8N2K0); test: ABHD12 activity by competitive ABPP with FP-TAMRA; conditions: 100 µM compound; competitive ABPP with probe FP-TAMRA (250 nM); read-out: ABHD12 Inhibition (%)
T2 construct: expressed in transfected cells; host or cells: HEK293T (transient transfection; membrane fraction)
T2 sequence (Q8N2K0 1-398): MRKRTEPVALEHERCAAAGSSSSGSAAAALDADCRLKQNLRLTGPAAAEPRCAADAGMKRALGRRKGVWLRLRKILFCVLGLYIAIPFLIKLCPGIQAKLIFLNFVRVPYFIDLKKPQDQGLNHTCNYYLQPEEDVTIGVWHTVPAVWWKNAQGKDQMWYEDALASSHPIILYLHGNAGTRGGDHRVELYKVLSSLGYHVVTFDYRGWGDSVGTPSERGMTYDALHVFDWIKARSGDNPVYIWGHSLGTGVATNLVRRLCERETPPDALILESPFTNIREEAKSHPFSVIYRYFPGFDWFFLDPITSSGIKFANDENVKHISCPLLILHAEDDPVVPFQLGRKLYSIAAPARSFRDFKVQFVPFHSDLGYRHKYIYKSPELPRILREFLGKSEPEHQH
Procedure: as §1
The ABHD12 activity assay is based on competitive activity-based protein profiling (ABPP) with human ABHD12 overexpressing membrane fractions. Briefly, the membrane proteome (1 mg/ml, 20 µl) was incubated at room temperature with 0.5 µl DMSO (vehicle) or inhibitor for 30 min. Subsequently, the samples were treated with the activity-based probe FP-TAMRA (250 nM, final concentration) for 20 min. The reactions were then quenched by 10 µl sample buffer (×4) (final concentrations: 60 mM Tris, pH 6.8, 2% (w/v) SDS, 10% (v/v) glycerol, 5% (v/v) β-mercaptoethanol, 0.01% (v/v) bromophenol blue). The samples were directly loaded and resolved on SDS-PAGE gel (10% acrylamide), which were then scanned using a ChemiDoc MP system (Cy3 settings, BioRad).

human MAGL = biological target: T3, human MAGL (Homo sapiens, UniProt Q99685); test: MAGL activity assay (AA-HNA fluorogenic substrate); conditions: 100 µM, AA-HNA substrate assay, Supplementary Table 1; read-out: MAGL Inhibition (%)
T3 construct: expressed in transfected cells; host or cells: HEK293T (transient transfection; membrane fraction)
T3 sequence (Q99685 1-303): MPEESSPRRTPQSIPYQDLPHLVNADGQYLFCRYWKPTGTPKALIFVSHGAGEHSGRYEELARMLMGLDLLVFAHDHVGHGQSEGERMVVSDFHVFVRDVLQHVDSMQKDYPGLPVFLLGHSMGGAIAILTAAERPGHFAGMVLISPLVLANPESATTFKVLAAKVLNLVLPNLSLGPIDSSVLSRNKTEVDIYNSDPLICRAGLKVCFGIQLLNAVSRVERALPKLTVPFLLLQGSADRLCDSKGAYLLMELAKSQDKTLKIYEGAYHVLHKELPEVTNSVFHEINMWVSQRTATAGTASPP
Procedure: as §1
The MAGL activity assay is based on the hydrolysis of 2-arachidonoylglycerol-based fluorogenic substrate by MAGL-overexpressing membrane preparations from transiently transfected HEK293T cells. In brief, the reactions were performed in HEPES buffer (40 mM HEPES, pH 7.5, 0.1 mg/ml BSA) in black, flat bottom 96-well plates. […] After the incubation of the inhibitor-protein complex for 30 min, 10 µl of the fluorogenic substrate (AA-HNA, 200 µM) was added and fluorescence was measured in 1 min intervals for 30 min on a plate reader (BioTek). […] All the measurements were performed in N = 2, n = 2 for inhibitors and N = 2, n = 4 for controls with Z′ value ≥0.6. The slope is determined in 5–15 min for all the experiments.

Compound	activity at 100 µM (human ABHD6)	activity at 100 µM (human ABHD12)	activity at 100 µM (human MAGL)	activity (human ABHD6)	activity (human ABHD12)	activity (human MAGL)
COc1ccc(CCC(=O)c2c(O)cc(O[C@@H]3O[C@H](CO)[C@@H](O)[C@H](O)[C@H]3O[C@@H]3O[C@@H](C)[C@H](O)[C@@H](O)[C@H]3O)cc2O)cc1O [compound 56, Neohesperidin dihydrochalcone]	105%	83.1%	87.4%			
O=C(CCc1ccc(O)cc1)c1c(O)cc(O)cc1O[C@@H]1O[C@H](CO)[C@@H](O)[C@H](O)[C@H]1O [compound 67, Phlorizin]	116%	96.7%	75.9%			
C=CCc1ccc(O)c(-c2ccc(O)c(CC=C)c2)c1 [compound 39, Honokiol]	83.9%	104%	111%			
Methyl-Hesperidin [compound 50]				94.2%	76.8%	62.5%
O=C(O)[C@H]1O[C@@H](Oc2cc3oc(-c4ccccc4)cc(=O)c3c(O)c2O)[C@H](O)[C@@H](O)[C@@H]1O [compound 15, Baicalin]	121%	85.9%	80.3%			
COc1ccc([C@@H]2CC(=O)c3c(O)cc(O)cc3O2)cc1O [compound 37, Hesperetin]	104%	83.6%	90.9%			
COc1ccc(-c2oc3c(CC=C(C)C)c(O[C@@H]4O[C@H](CO)[C@@H](O)[C@H](O)[C@H]4O)cc(O)c3c(=O)c2O[C@@H]2O[C@@H](C)[C@H](O)[C@@H](O)[C@H]2O)cc1 [compound 41, Icariin]	84.6%	66%	84%			
C=C1CC[C@@H]2[C@](C)(CO)[C@H](O)CC[C@@]2(C)[C@@H]1C/C=C1/C(=O)OC[C@H]1O [compound 8, Andrographolide]	81.8%	61.9%	83.5%			
O=c1c(O)c(-c2cc(O)c(O)c(O)c2)oc2cc(O)cc(O)c12 [compound 52, Myricetin]	100%	63.9%	41.2%			
C=C1C(=O)O[C@H]2[C@H]1CC/C(C)=C/CC[C@@]1(C)O[C@@H]21 [compound 65, (-)-Parthenolide]				105%	92.4%	87.5%
O=C(O)/C=C/c1ccc(O)c(O)c1 [compound 19, Caffeic Acid]				108%	83.7%	90.1%
O=C(O[C@@H]1Cc2c(O)cc(O)cc2O[C@@H]1c1cc(O)c(O)c(O)c1)c1cc(O)c(O)c(O)c1 [compound 2, (-)-Epigallocatechin Gallate]	95%	59.6%	38.9%			
O=c1cc(-c2ccccc2)oc2cc(O)cc(O)c12 [compound 22, Chrysin]	105%	84%	93.2%			
O=C(/C=C/C=C/c1ccc2c(c1)OCO2)N1CCCCC1 [compound 68, Piperine]	112%	90.8%	99.7%			
C[C@@H]1O[C@@H](O)[C@H](O)[C@H](O)[C@H]1O [compound 45, L-(+)-Rhamnose Monohydrate]				98.8%	80.6%	81.1%
O=c1c(O)c(-c2ccc(O)cc2O)oc2cc(O)cc(O)c12 [compound 51, Morin hydrate]				99.4%	31.6%	49.4%
C[C@@H]1O[C@@H](O[C@H]2[C@H](Oc3cc(O)c4c(c3)O[C@H](c3ccc(O)cc3)CC4=O)O[C@H](CO)[C@@H](O)[C@@H]2O)[C@H](O)[C@H](O)[C@H]1O [compound 55, Naringin]	104%	81.4%	104%			
C[C@H]1[C@@H](O)O[C@@H]2O[C@@]3(C)CC[C@H]4[C@H](C)CC[C@@H]1[C@@]24OO3 [compound 26, Dihydroartemisinin]	89.2%	81.1%	92.5%			
CC1(C)[C@@H](O[C@H]2O[C@H](C(=O)O)[C@@H](O)[C@H](O)[C@H]2O[C@@H]2O[C@H](C(=O)O)[C@@H](O)[C@H](O)[C@H]2O)CC[C@]2(C)[C@H]3C(=O)C=C4[C@@H]5C[C@@](C)(C(=O)O)CC[C@]5(C)CC[C@@]4(C)[C@]3(C)CC[C@@H]12 [compound 33, Glycyrrhizin]	92.9%	69.3%	99.5%			
C[C@@H]1O[C@@H](OC[C@H]2O[C@@H](Oc3c(-c4ccc(O)c(O)c4)oc4cc(O)cc(O)c4c3=O)[C@H](O)[C@@H](O)[C@@H]2O)[C@H](O)[C@H](O)[C@H]1O [compound 72, Rutin]	119%	84.3%	75.9%			
Cc1cc(O)c2c(c1)C(=O)c1cc(O)cc(O)c1C2=O [compound 28, Emodin]	87.9%	67.6%	63.2%			
CCn1cc(C(=O)O)c(=O)c2ccc(C)nc21 [compound 54, Nalidixic acid]	100%	82.2%	143%			
